Numbered stars: 1 amine (or outer) side, 2 acyl side, 3 side chain; on linkers, the order of the positions; unused ones are H or OH. Bridge positions count the residues as written; N and C are the ends. Square brackets hold non-standard residues; d marks the D form. Peptide text beside a SMILES is read from it. * marks the point of attachment. mXylylene = c1cc(C[*:1])cc(C[*:2])c1; Phg = N[C@H](C(=O)O)c1ccccc1; Tle = CC(C)(C)[C@H](N)C(=O)O; Heptanoyl = CCCCCCC(=O)*; Mpa = O=C(O)CCS
Columns and labels:
Assay type in all cases: biochemical
human plasma kallikrein = biological target: T1, human plasma kallikrein (Homo sapiens, UniProt P03952); assay: Enzyme inhibition assay (fluorogenic substrate H-Pro-Phe-Arg-AMC); conditions: Kallikrein inhibitory activity; 1 nM activated human kallikrein, 500 μM H-Pro-Phe-Arg-AMC, 1 hour room temperature; read-out: Avg. IC50
T1 construct: purchased Enzyme Research Laboratories HPKa 1303
In short: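 Activated enzyme (1 nM final) was preincubated 5 min at room temperature with peptides in 10-point 8-fold dilutions. The buffer was 50 mM Tris-HCl pH 7.2, 150 mM NaCl, 10 mM CaCl2, 0.05% Brij-35. After 1 h at room temperature with 500 μM substrate (final), fluorescence was read at 360/460 nm to derive IC50.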

Factor VIIa = biological target: T2, Factor VIIa (Homo sapiens, UniProt P08709); assay: Inhibitor specificity IC50 assay, Factor VIIa (Boc-Val-Pro-Arg-AMC); conditions: substrate Boc-Val-Pro-Arg-AMC
T2 construct: Factor VIIa (Enzyme Research Laboratories, South Bend, Ind.); purchased Enzyme Research Laboratories
T2 sequence (P08709 61-212 limits assumed): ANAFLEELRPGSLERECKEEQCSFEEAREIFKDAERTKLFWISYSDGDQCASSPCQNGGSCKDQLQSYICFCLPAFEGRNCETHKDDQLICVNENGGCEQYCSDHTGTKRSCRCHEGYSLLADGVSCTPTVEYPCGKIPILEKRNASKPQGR
T2 sequence (P08709 213-466 limits assumed): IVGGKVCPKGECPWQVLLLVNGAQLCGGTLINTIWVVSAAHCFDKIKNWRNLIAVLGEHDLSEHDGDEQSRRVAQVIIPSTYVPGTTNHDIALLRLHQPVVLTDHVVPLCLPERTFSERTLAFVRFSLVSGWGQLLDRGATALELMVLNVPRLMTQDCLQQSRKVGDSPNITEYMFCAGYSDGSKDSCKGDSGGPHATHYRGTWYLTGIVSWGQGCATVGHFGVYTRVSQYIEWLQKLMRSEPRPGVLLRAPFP
Protocol: (§1) Ten 8-fold serial dilutions of peptides (10 mM DMSO stocks) were performed in DMSO and then added to TCNB (50 mM Tris-HCl pH 7.2, 150 mM NaCl, 10 mM CaCl2, 0.05% Brij-35) and sonicated. 50 μL of the peptide dilutions were added to microtitre plates (96 well, black non-binding surface, Corning, 3650) and incubated for 5 minutes at room temperature with 4 nM activated human kallikrein (final concentration after addition of fluorogenic substrate: 1 nM). The samples were then incubated for 1 hour at room temperature with 2 mM H-Pro-Phe-Arg-AMC (final concentration 500 μM). Relative Fluorescence Units (RFU) were measured at excitation/emission 360 nm/460 nm by a SpectraMax M3.
(§2) To determine the specificity of peptide inhibitors, an IC50 assay, as described in Example 4, was performed on a variety of serine proteases related to human plasma kallikrein. The enzymes tested include mouse plasma kallikrein (R&D Systems, Minneapolis, Minn.), and the human enzymes Factor VIIa (Enzyme Research Laboratories, South Bend, Ind.), Factor Xa (Enzyme Research Laboratories, South Bend, Ind.), Factor XIa (Enzyme Research Laboratories, South Bend, Ind.), Factor XIIa (Enzyme Research Laboratories, South Bend, Ind.), tissue kallikrein KLK13 (R&D Systems, Minneapolis, Minn.), thrombin (Enzyme Research Laboratories, South Bend, Ind.) and plasmin (Enzyme Research Laboratories, South Bend, Ind.).
(§3) Each enzyme was tested with the following specific fluorgenic substrates (available from Bachem; Torrance, Calif.): mouse plasma kallikrein (Pro-Phe-Arg-AMC), Factor VIIa (Boc-Val-Pro-Arg-AMC), Factor Xa (Boc-Gln-Gly-Arg-AMC), Factor XIa (Boc-Gln-Gly-Arg-AMC), Factor XIIa (Boc-Gln-Gly-Arg-AMC), KLK13 (Boc-Val-Pro-Arg-AMC), thrombin (Boc-Val-Pro-Arg-AMC) and plasmin (Boc-Val-Leu-Lys-AMC). Peptide inhibitors R2006, R2010, R2012, R2019, R2023, R2030, R2036, R2041, R2047, R2104 and R2051 were assayed.

Factor Xa = biological target: T3, Factor Xa (Homo sapiens, UniProt P00742); assay: Inhibitor specificity IC50 assay, Factor Xa (Boc-Gln-Gly-Arg-AMC); conditions: substrate Boc-Gln-Gly-Arg-AMC
T3 construct: Factor Xa (Enzyme Research Laboratories, South Bend, Ind.); purchased Enzyme Research Laboratories
Protocol: (§4) Activated human plasma kallikrein (Enzyme Research Laboratories, HPKa 1303) was reacted with H-Pro-Phe-Arg-7-amido-4-methylcoumarin (H-Pro-Pre-Arg-AMC) (a fluorogenic substrate for plasma as well as pancreatic and urinary kallikreins; Bachem I-1295) and candidate inhibitory peptides to determine the IC50 of the inhibitor.
as §1, §2, §3

Factor XIa = biological target: T4, Factor XIa (Homo sapiens, UniProt P03951); assay: Inhibitor specificity IC50 assay, Factor XIa (Boc-Gln-Gly-Arg-AMC); conditions: substrate Boc-Gln-Gly-Arg-AMC
T4 construct: Factor XIa (Enzyme Research Laboratories, South Bend, Ind.); purchased Enzyme Research Laboratories
Protocol: as §4, §1, §2, §3

Factor XIIa = biological target: T5, Factor XIIa (Homo sapiens, UniProt P00748); assay: Inhibitor specificity IC50 assay, Factor XIIa (Boc-Gln-Gly-Arg-AMC); conditions: substrate Boc-Gln-Gly-Arg-AMC
T5 construct: Factor XIIa (Enzyme Research Laboratories, South Bend, Ind.); purchased Enzyme Research Laboratories
T5 sequence (P00748 373-615 limits assumed): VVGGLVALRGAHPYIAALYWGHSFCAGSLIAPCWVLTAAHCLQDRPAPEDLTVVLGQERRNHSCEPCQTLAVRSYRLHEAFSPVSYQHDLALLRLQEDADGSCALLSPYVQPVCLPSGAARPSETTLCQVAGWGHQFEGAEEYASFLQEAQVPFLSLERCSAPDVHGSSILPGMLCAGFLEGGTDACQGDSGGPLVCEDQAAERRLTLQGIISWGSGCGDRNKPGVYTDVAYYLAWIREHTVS
Protocol: as §4, §1, §2, §3

tissue kallikrein KLK13 = biological target: T6, tissue kallikrein KLK13 (Homo sapiens, UniProt Q9UKR3); assay: Inhibitor specificity IC50 assay, KLK13 (Boc-Val-Pro-Arg-AMC); conditions: substrate Boc-Val-Pro-Arg-AMC
T6 construct: purchased R&D Systems
T6 sequence (Q9UKR3 17-277): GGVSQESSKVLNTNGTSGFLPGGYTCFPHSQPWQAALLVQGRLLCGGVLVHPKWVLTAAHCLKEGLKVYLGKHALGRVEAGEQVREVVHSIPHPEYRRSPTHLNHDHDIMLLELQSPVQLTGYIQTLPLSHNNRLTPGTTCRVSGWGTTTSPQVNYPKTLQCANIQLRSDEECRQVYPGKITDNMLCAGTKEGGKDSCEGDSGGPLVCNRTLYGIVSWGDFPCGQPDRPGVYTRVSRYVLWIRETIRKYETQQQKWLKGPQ
Protocol: as §4, §1, §2, §3

thrombin = biological target: T7, thrombin (Homo sapiens, UniProt P00734); assay: Inhibitor specificity IC50 assay, thrombin (Boc-Val-Pro-Arg-AMC); conditions: substrate Boc-Val-Pro-Arg-AMC
T7 construct: thrombin (Enzyme Research Laboratories, South Bend, Ind.); purchased Enzyme Research Laboratories
Protocol: as §4, §1, §2, §3

plasmin = biological target: T8, plasmin (Homo sapiens, UniProt P00747); assay: Inhibitor specificity IC50 assay, plasmin (Boc-Val-Leu-Lys-AMC); conditions: substrate Boc-Val-Leu-Lys-AMC
T8 construct: plasmin (Enzyme Research Laboratories, South Bend, Ind.); purchased Enzyme Research Laboratories
Protocol: as §4, §1, §2, §3

T8 sequence (P00747 97-580 limits assumed): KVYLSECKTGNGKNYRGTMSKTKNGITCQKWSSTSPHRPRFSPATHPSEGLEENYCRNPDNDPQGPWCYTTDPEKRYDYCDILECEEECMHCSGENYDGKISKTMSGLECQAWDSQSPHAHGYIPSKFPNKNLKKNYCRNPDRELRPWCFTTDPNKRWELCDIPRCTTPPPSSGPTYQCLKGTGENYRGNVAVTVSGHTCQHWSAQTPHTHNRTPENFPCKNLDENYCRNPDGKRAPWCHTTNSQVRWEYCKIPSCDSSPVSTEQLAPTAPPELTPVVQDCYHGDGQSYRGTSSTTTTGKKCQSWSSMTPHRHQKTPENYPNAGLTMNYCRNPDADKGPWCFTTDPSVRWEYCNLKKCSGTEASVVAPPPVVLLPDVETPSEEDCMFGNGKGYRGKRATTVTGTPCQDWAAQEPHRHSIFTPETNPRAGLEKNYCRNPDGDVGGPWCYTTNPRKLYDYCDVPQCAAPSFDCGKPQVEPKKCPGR
T8 sequence (P00747 581-810 limits assumed): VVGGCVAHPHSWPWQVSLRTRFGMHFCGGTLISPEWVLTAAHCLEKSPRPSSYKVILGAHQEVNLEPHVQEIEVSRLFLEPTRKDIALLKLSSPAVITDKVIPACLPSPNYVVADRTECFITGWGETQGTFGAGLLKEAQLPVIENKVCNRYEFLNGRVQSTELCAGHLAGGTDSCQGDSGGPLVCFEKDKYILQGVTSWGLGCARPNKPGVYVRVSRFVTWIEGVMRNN
T1 sequence (P03952 20-390 limits assumed): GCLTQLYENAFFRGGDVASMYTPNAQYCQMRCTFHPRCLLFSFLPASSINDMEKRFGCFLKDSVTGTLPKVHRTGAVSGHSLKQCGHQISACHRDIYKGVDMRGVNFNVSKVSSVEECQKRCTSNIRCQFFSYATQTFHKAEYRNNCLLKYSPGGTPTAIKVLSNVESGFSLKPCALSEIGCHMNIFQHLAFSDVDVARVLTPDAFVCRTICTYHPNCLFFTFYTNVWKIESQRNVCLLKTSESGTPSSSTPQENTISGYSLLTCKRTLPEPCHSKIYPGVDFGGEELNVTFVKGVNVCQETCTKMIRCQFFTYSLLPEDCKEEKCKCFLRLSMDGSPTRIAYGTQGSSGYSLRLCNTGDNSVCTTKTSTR
T1 sequence (P03952 391-638 limits assumed): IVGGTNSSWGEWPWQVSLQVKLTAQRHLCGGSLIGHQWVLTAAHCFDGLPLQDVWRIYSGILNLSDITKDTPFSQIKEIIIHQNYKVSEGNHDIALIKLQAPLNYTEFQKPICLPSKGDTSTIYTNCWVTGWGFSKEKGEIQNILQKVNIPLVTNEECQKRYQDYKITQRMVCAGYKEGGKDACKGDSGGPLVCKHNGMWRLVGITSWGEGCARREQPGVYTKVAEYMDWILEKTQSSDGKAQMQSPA
T3 sequence (P00742 41-179 limits assumed): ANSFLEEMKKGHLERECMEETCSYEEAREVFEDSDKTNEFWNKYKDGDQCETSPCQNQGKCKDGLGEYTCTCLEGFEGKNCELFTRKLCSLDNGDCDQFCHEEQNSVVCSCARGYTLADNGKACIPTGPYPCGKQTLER
T3 sequence (P00742 235-488 limits assumed): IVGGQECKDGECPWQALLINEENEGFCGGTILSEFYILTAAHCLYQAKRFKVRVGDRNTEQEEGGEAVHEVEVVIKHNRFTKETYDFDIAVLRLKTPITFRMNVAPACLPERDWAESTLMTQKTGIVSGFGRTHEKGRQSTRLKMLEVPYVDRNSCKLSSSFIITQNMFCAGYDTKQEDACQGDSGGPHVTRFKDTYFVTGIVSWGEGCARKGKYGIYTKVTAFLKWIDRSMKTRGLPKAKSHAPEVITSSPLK
T4 sequence (P03951 19-387 limits assumed): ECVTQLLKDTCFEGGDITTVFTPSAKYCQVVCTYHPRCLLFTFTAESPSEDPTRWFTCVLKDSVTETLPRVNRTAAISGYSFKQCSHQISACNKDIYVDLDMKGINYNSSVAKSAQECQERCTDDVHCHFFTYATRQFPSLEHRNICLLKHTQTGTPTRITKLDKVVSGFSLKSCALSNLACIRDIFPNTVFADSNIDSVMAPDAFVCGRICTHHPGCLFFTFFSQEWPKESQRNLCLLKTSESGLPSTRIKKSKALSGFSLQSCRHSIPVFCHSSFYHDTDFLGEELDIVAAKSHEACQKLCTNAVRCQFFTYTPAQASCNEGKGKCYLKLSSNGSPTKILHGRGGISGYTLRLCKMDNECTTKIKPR
T4 sequence (P03951 388-625 limits assumed): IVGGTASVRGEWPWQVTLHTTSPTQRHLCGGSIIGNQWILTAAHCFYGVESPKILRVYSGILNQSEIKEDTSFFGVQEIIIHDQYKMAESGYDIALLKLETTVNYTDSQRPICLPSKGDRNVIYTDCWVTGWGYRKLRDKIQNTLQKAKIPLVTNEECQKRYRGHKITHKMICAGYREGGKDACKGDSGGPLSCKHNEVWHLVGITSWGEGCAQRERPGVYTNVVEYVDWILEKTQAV

| IC50 (human plasma kallikrein) | IC50 (Factor VIIa) | IC50 (Factor Xa) | IC50 (Factor XIa) | IC50 (Factor XIIa) | IC50 (tissue kallikrein KLK13) | IC50 (thrombin) | IC50 (plasmin) | Structure (SMILES) |
| --- | --- | --- | --- | --- | --- | --- | --- | --- |
| 0.0064 µM | > 100 µM | > 7 µM | > 4.8 µM | > 100 µM | > 100 µM | > 100 µM | > 19.5 µM | CC(=O)N[C@H]1CSCc2cccc(c2)CSC[C@@H](C(=O)N[C@@H](CCCNC(=N)N)C(=O)N[C@H](C(N)=O)C(C)(C)C)NC(=O)[C@H](c2ccccc2)NC(=O)[C@H](CO)NC(=O)[C@H](C)NC1=O [Compound R2036, [mXylyl(1,5)]Ac-CAS-Phg-CR-Tbg-NH2] (Ac-CAS[Phg]CR[Tle]-NH2; linker 1-5 via mXylylene) |
| 0.0242 µM | > 17.9 µM | > 7 µM | > 5.4 µM | > 100 µM | > 100 µM | > 100 µM | > 100 µM | CCCCCCC(=O)N[C@H]1CSCc2cccc(c2)CSC[C@@H](C(=O)N[C@@H](CCCNC(=N)N)C(=O)N[C@H](C(N)=O)C(C)C)NC(=O)[C@H]([C@@H](C)CC)NC(=O)[C@H](CO)NC(=O)[C@H](CCC(=O)O)NC1=O [Compound R2041, [mXylyl(1,5)]Heptanoyl-CESICRV-NH2] (Heptanoyl-CESICRV-NH2; linker 1-5 via mXylylene) |
| 0.0129 µM | > 100 µM | > 100 µM | > 8.3 µM | > 100 µM | > 100 µM | > 100 µM | > 100 µM | CC[C@H](C)[C@@H]1NC(=O)[C@H](CO)NC(=O)[C@H](CCC(=O)O)NC(=O)CCSCc2cccc(c2)CSC[C@@H](C(=O)N[C@@H](CCCNC(=N)N)C(=O)N[C@H](C(N)=O)C(C)C)NC1=O [Compound R2051, [mXylyl(1,5)](des-NH2)C-ESICRV-NH2] ([Mpa]ESICRV-NH2; linker 1-5 via mXylylene) |
